Experimental data as given in patent US10947273B2, “Peptides of use in the preventive and curative treatment of alopecia” (Institut Europeen de Biologie Cellulaire, priority 2015, dated 2021).
“Also recorded” adds a separate entry of the source. Marks after values point to notes of the source that are not given here. The star is where a group is joined. Palmitoyl = CCCCCCCCCCCCCCCC(=O)*; Chol = cholesterol residue

Columns and labels:
[1] = system: normal human dermal fibroblasts (NHDF); experiment: CellTiter-Blue proliferation of NHDF; format: cell-based; details: 10^−5M, 72 hours
Protocol: (§1) Cell proliferation and viability were evaluated in vitro with a kit from Promega, CellTiter-Blue® Cell Viability Assay, for estimating the number of living cells present in the culture. This kit is based on detection, by measurement of fluorescence, of conversion of the dye, resazurin, into a fluorescent product (resorufin) by living and thus metabolically active cells.
(§2) The effect of the peptides tested, (1) and (9), at 4 different concentrations (10^−5, 10^−7, 10^−9 and 10^−11M) was examined on five cell types: immortalized human skin keratinocytes (HaCaT), human hair follicular keratinocytes (HHFK), normal human dermal fibroblasts (NHDF), hair follicle dermal papilla cells (HFDPC), and normal human epidermal melanocytes (NHEM) exposed to the molecule studied for 72 hours.

VEGF [2] = experiment: qPCR (TLDA) VEGF gene expression in HFDPC; format: cell-based, human; details: peptide 10^−5 M (table title), 24 hours, relative to untreated controls
Protocol: (§3) RNA was extracted and purified from cell pellets using the RNA XS Kit (Macherey-Nagel). RNA quantification was carried out with a NanoDrop device and sample quality was verified on a Bioanalyzer with RNA 6000 Nano chips (Agilent). cDNA was synthesized from 300 ng of RNA using the High-Capacity cDNA Reverse Transcription Kit (LifeTech). Quality-control qPCR assays of the cDNA were carried out in microplates on the reference gene, GAPDH, and the SIRT1 gene.
(§4) Final qPCR experiments were carried out in a 1 μl volume on microfluidic cards (TaqMan Low Density Arrays, LifeTech) and the ABI 7900HT qPCR device. Amplification reactions were performed in duplicate using 1 to 2 ng of cDNA per qPCR reaction and TaqMan Universal Master Mix II (LifeTech).
(§5) Ct values were obtained using the RQ Manager software. For analyses of qPCR results, Ct values were limited to 35 cycles and the duplicate assays are averaged. The GeneXPro software was used for the studies of stability and of selection of the best reference genes. Expression variations are calculated by the relative quantification method and are expressed as percent increase in expression of the gene of interest relative to the untreated controls.

IGF1 = experiment: qPCR (TLDA) IGF1 gene expression in HFDPC; format: cell-based, human; details: relative to untreated controls
Protocol: (§6) To study the effect of 9 peptides on these genes, HFDPC were treated for 24 hours with the molecules tested at 10^−7M and 10^−9M concentrations.
as §3, §4, §5

BMP2 [3] = experiment: qPCR (TLDA) BMP2 gene expression in HFDPC; format: cell-based, human; details: relative to untreated controls
Protocol: as §6, §3, §4, §5

[4] = system: genes whose expression is reduced in subjects characterized by alopecia; experiment: qPCR (TLDA) overall statement, genes involved in alopecia, HFDPC; format: cell-based, human; details: summary of Table 1
Protocol: as §6, §3, §4, §5

PDGF = PDGF secretion by HFDPC (ELISA/BioPlex); format: cell-based, human; details: 48h
Protocol: (§7) NHDF, HFDPC, HHFK and NHEM cells were treated with the peptides studied for 48h. At the end of the treatment, cell supernatants were collected and stored at −80° C. until analysis. The factors of interest secreted into the supernatant were assayed by ELISA® (R&D) or BioPlex® (BioRad®).
(§8) The results are expressed as percent increase in the concentration of the factor present in the supernatant relative to the untreated control. The intensity of the effect varies as a function of the concentration of the peptide studied and of the cell type treated.

KGF [5] = experiment: KGF secretion by HFDPC (ELISA/BioPlex); format: cell-based, human; details: 48h
Protocol: as §7, §8

VEGF [6] = experiment: VEGF secretion by HFDPC (ELISA/BioPlex); format: cell-based, human; details: 48h
Protocol: as §7, §8

BMP2 [7] = experiment: BMP2 secretion by HFDPC (ELISA/BioPlex); format: cell-based, human; details: 48h
Protocol: as §7, §8

NGF [8] = experiment: NGF secretion by NHDF (ELISA/BioPlex); format: cell-based, human; details: 48h
Protocol: as §7, §8

VEGF [9] = experiment: VEGF secretion by NHDF (ELISA/BioPlex); format: cell-based, human; details: 48h
Protocol: as §7, §8

SCF [10] = experiment: SCF secretion by NHDF (ELISA/BioPlex); format: cell-based, human; details: 48h
Protocol: as §7, §8

HGF [11] = experiment: HGF secretion by HHFK (ELISA/BioPlex); format: cell-based, human; details: 10^−7 M, 48h
Protocol: as §7, §8

SCF [12] = experiment: SCF secretion by HHFK (ELISA/BioPlex); format: cell-based, human; details: 10^−7 M, 48h
Protocol: as §7, §8

NGF [13] = experiment: NGF secretion by HHFK (ELISA/BioPlex); format: cell-based, human; details: 10^−7 M, 48h
Protocol: as §7, §8

VEGF [14] = experiment: VEGF secretion by NHEM (ELISA/BioPlex); format: cell-based, human; details: 10^−7 M, 48h
Protocol: as §7, §8

[15] = system: microdissected hairs from scalp surgery specimens; experiment: Growth of isolated hair ex vivo; format: cell-based, human; details: for Growth at D 11/D 12 Vs Control: ex vivo isolated hair; for growth increase compared with minoxidil sulphate: peptide 10^−9M, minoxidil sulphate 10^−5 M; for hair growth after 11 to 12 days of treatment ex vivo (in words): summary of Table 3
Protocol: (§9) This study was carried out on microdissected hairs from scalp surgery specimens from women aged 52 to 71 years. Isolated hairs were kept alive for 11 to 12 days in Williams medium, under conventional cell culture conditions (37° C., 5% CO2). […]
(§10) To evaluate the effect of (1), (6) or (9) on hair growth, the hairs were photographed and their lengths measured using image analysis software. Thus, the growth of the hairs between D0 and D11/D12 could be calculated and compared with that of the untreated control. At the end of the treatments (D11 or D12), the hairs were collected and frozen or fixed for immunolabeling and histological staining.

HGF [16] = experiment: qPCR (TLDA) HGF gene expression in HFDPC; format: cell-based, human; parameters: dose or concentration left out as unconfirmed; details: peptide, 24 hours, relative to untreated controls
Protocol: as §3, §4, §5

HGF [17] = experiment: HGF secretion by NHDF (ELISA/BioPlex); format: cell-based, human; details: 48h
Protocol: as §7, §8

HGF [18] = experiment: HGF secretion by NHEM (ELISA/BioPlex); format: cell-based, human; details: 10^−7 M, 48h
Protocol: as §7, §8

HGF [19] = experiment: HGF secretion by HFDPC (ELISA/BioPlex); format: cell-based, human; details: 10^−9 M, 48h
Protocol: as §7, §8

NGF [20] = experiment: NGF secretion by HFDPC (ELISA/BioPlex); format: cell-based, human; details: 10^−9 M, 48h
Protocol: as §7, §8

[21] = system: immortalized human skin keratinocytes (HaCaT); experiment: CellTiter-Blue proliferation of HaCaT; format: cell-based; details: 10^−5M, 72 hours
Protocol: as §1, §2

KGF [22] = experiment: qPCR (TLDA) KGF gene expression in HFDPC; format: cell-based, human; parameters: dose or concentration left out as unconfirmed; details: peptide, 24 hours, relative to untreated controls
Protocol: as §3, §4, §5

follicular markers = experiment: Follicular markers in isolated hair ex vivo (immunolabeling); format: cell-based, human; details: end of treatment D11 or D12, value = marker increased
Protocol: as §9, §10

| Substance | % stimulation VEGF gene expression (VEGF [2]) [%] | % stimulation IGF1 gene expression (IGF1; peptide 10^−9, 24 hours) | stimulation of genes whose expression is reduced in alopecia (in words) [4] | PDGF secretion, percent increase relative to untreated control (PDGF; 10^−5 M) | PDGF secretion, percent increase relative to untreated control (PDGF; 10^−7 M) | KGF secretion, percent increase relative to untreated control (KGF [5]; 10^−7 M) | NGF secretion, percent increase relative to untreated control (NGF [8]; 10^−5 M) | NGF secretion, percent increase relative to untreated control (NGF [8]; 10^−7 M) | VEGF secretion, percent increase relative to untreated control (VEGF [9]; 10^−7 M) | HGF secretion, percent increase relative to untreated control (HGF [11]) | VEGF secretion, percent increase relative to untreated control (VEGF [14]) | Growth at D 11/D 12 Vs Control ([15]; 10^−9 M) | growth increase compared with minoxidil sulphate [15] | hair growth after 11 to 12 days of treatment ex vivo (in words) [15] | HGF secretion, percent increase relative to untreated control (HGF [17]; 10^−7 M) | % stimulation IGF1 gene expression (IGF1; peptide 10^−7, 24 hours) | PDGF secretion, percent increase relative to untreated control (PDGF; 10^−9 M) | KGF secretion, percent increase relative to untreated control (KGF [5]; 10^−9 M) | VEGF secretion, percent increase relative to untreated control (VEGF [6]; 10^−7 M) | NGF secretion, percent increase relative to untreated control (NGF [8]; 10^−9 M) | other results |
| --- | --- | --- | --- | --- | --- | --- | --- | --- | --- | --- | --- | --- | --- | --- | --- | --- | --- | --- | --- | --- | --- |
| Palm-Ala-Ala-Pro-Ala-Lys-NH2 (Palmitoyl-AAPAK-NH2; SMILES CCCCCCCCCCCCCCCC(=O)N[C@@H](C)C(=O)N[C@@H](C)C(=O)N1CCC[C@H]1C(=O)N[C@@H](C)C(=O)N[C@@H](CCCCN)C(N)=O) [(6)] | 24 | 94% (10^−9) | stimulate several genes | PDGF 15% | PDGF 38% | KGF 13% | NGF 51% | NGF 12% | VGF 407% | HGF 52% | VEGF 15% | +38%# | higher than that obtained after treatment with minoxidil sulphate | stimulate hair growth | – | – | – | – | – | – | stimulation of proliferation of NHDF [1]: +11%; % stimulation BMP2 gene expression (BMP2 [3]; peptide 10^−9, 24 hours): 116% (10^−9); KGF secretion, percent increase relative to untreated control (KGF [5]; 10^−5 M): KGF 7%; VEGF secretion, percent increase relative to untreated control (VEGF [6]; 10^−5 M): VEGF 18%; BMP2 secretion, percent increase relative to untreated control (BMP2 [7]; 10^−5 M): BMP2 44%; SCF secretion, percent increase relative to untreated control (SCF [10]; 10^−5 M): SCF 8%; SCF secretion, percent increase relative to untreated control (SCF [12]): SCF 9%; NGF secretion, percent increase relative to untreated control (NGF [13]): NGF 10%; Growth at D 11/D 12 Vs Control ([15]; 10^−7 M): +28% |
| Chol-Ala-Arg-Pro-Ala-Lys-NH2 (Chol-ARPAK-NH2) [(7)] | – | – | – | – | – | – | – | NGF 11% | – | – | – | – | – | – | HGF 104% | – | – | – | – | – | % stimulation HGF gene expression (HGF [16]): 49%; SCF secretion, percent increase relative to untreated control (SCF [10]; 10^−7 M): SCF 10% |
| Palm-Ala-Arg-Ala-Ala-Lys-NH2 (Palmitoyl-ARAAK-NH2; SMILES CCCCCCCCCCCCCCCC(=O)N[C@@H](C)C(=O)N[C@@H](CCCNC(=N)N)C(=O)N[C@@H](C)C(=O)N[C@@H](C)C(=O)N[C@@H](CCCCN)C(N)=O) [(5)] | 10 | 16% (10^−9) | stimulate several genes | PDGF 39% | PDGF 55% | – | NGF 15% | – | – | HGF 104% | VEGF 5% | – | – | – | HGF 21% | 29% (10^−7) | – | – | – | – | VEGF secretion, percent increase relative to untreated control (VEGF [9]; 10^−5 M): VEGF 12%; HGF secretion, percent increase relative to untreated control (HGF [18]): HGF 8% |
| Palm-Ala-Arg-Pro-Ala-Lys-NH2 (Palmitoyl-ARPAK-NH2; SMILES CCCCCCCCCCCCCCCC(=O)N[C@@H](C)C(=O)N[C@@H](CCCNC(=N)N)C(=O)N1CCC[C@H]1C(=O)N[C@@H](C)C(=O)N[C@@H](CCCCN)C(N)=O) [(3)] | 83 | – | stimulate several genes | – | – | KGF 53% | – | – | – | – | – | – | – | – | – | – | PDGF 39% | KGF 45% | VEGF 9% | NGF 89% | HGF secretion, percent increase relative to untreated control (HGF [19]): HGF 33%; NGF secretion, percent increase relative to untreated control (NGF [20]): NGF 6%; VEGF secretion, percent increase relative to untreated control (VEGF [9]; 10^−9 M): VEGF 48%; HGF secretion, percent increase relative to untreated control (HGF [17]; 10^−9 M): HGF 5% |
| H-Ala-Arg-Pro-Ala-Lys-OH (H-ARPAK-OH) [Peptide (1)] | – | – | stimulate several genes | – | PDGF 31% | KGF 8% | – | – | VEGF 4% | – | – | +40% | close to that obtained after treatment with minoxidil sulphate | stimulate hair growth | – | 32% (10^−7) | PDGF 23% | KGF 25% | VEGF 9% | NGF 13% | stimulation of proliferation of HaCaT [21]: +15%; % stimulation KGF gene expression (KGF [22]): 14%; % stimulation BMP2 gene expression (BMP2 [3]; peptide 10^−7, 24 hours): 26% (10^−7); VEGF secretion, percent increase relative to untreated control (VEGF [6]; 10^−9 M): VEGF 4%; BMP2 secretion, percent increase relative to untreated control (BMP2 [7]; 10^−9 M): BMP2 22%; VEGF secretion, percent increase relative to untreated control (VEGF [9]; 10^−9 M): VEGF5%; HGF secretion, percent increase relative to untreated control (HGF [17]; 10^−9 M): HGF 18%; Growth at D 11/D 12 Vs Control ([15]; 10^−1 M): No effect; Follicular markers increased Vs Control (follicular markers; 10^−1 M): Coll IV; also recorded: Laminin-5; Follicular markers increased Vs Control (follicular markers; 10^−9 M): Coll IV and CD34 |
